The text below walks through data of patent US11760754B2, “Heterocyclic mitochondrial activity inhibitors and uses thereof” (UNIVERSITÉ DE MONTRÉAL, priority 2017, dated 2023).

The term pEC50 denotes the EC50 on a negative log10 scale, so that one unit is a factor of ten.

One test relates to OCI-AML3 cells. Briefly: OCI-AML3 cell growth inhibition, dose-response viability assay (CellTiterGlo). It is filed as cell-based. The settings on record: Homo sapiens, OCI-AML-3, 144 h, read-out: AML-3 EC50. A digest of the protocol: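 OCI-AML3 cells seeded, then exposed to compound in serial dilutions from 10 μM to 0.5 nM, in duplicate or quadruplicate. Viability read by CellTiter-Glo.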
(In general: In ATP-based viability assays light output follows the ATP content of the culture.)

A further test has as its system MLL-AF9 cells. Description: MLL-AF9 leukemia cell growth inhibition, dose-response viability assay (CellTiterGlo). It is filed as cell-based, murine. The settings on record: Mus musculus, MLL-AF9, 120 h, read-out: MLL-AF9 EC50. A digest of the protocol: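 Murine MLL-AF9 leukemia cells (female, MSCV MLL-AF9 IRES Puro transduced) were treated with serial compound dilutions from 10 μM to 0.5 nM in duplicates or quadruplicates. Viability read by CellTiterGlo dose-response.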

pEC50: −log10 of the molar value.

For `O=C(Nc1ccc(C(F)(F)F)cc1[N+](=O)[O-])c1coc(COc2ccc(CCCCn3ccnn3)cc2)n1` [Compound 78, 2-((4-(4-(1H-1,2,3-triazol-1-yl)butyl)phenoxy)methyl)-N-(2-nitro-4-(trifluoromethyl)phenyl)oxazole-4-carboxamide], the values for the pEC50 in the test with OCI-AML3 cells and with MLL-AF9 cells were 5.00 to 6.00 and below 5.00, respectively.

`CC(C)(C)OC(=O)NCCCCc1ccc(OCc2coc(/C=C/c3ccc(C(F)(F)F)cc3)n2)cc1` [Compound 79, (E)-tert-butyl (4-(4-((2-(4-(trifluoromethyl)styryl)oxazol-4-yl)methoxy)phenyl)butyl) carbamate]: the negative-log EC50 (pEC50) in the test with OCI-AML3 cells and with MLL-AF9 cells was 5.00 to 6.00 in each case.

Turning to `C(=C\c1nc(COc2ccc(CCCCn3ccnn3)cc2)co1)/c1ccncc1` [Compound 80, (E)-4-((4-(4-(1H-1,2,3-triazol-1-yl)butyl)phenoxy)methyl)-2-(2-(pyridin-4-yl)vinyl) oxazole], the pEC50 in the test with OCI-AML3 cells was 6.00 to 6.30; with MLL-AF9 cells, 6.30 to 7.00.

In the case of `Fc1cnccc1/C=C/c1nc(COc2ccc(CCCCn3ccnn3)cc2)co1` [Compound 81, (E)-4-((4-(4-(1H-1,2,3-triazol-1-yl)butyl)phenoxy)methyl)-2-(2-(3-fluoropyridin-4-yl)vinyl)oxazole], the negative-log EC50 (pEC50) in the test with OCI-AML3 cells and with MLL-AF9 cells was 7.00 to 7.30 each time.

For `C(=C\c1nc(COc2ccc(CCCCn3ccnn3)cc2)co1)/c1cccnc1` [Compound 82, (E)-4-((4-(4-(1H-1,2,3-triazol-1-yl)butyl)phenoxy)methyl)-2-(2-(pyridin-3-yl)vinyl)oxazole], the pEC50 in the test with OCI-AML3 cells and in the test with MLL-AF9 cells was 6.30 to 7.00 throughout.

Turning to `Fc1ncccc1/C=C/c1nc(COc2ccc(CCCCn3ccnn3)cc2)co1` [Compound 83, (E)-4-((4-(4-(1H-1,2,3-triazol-1-yl)butyl)phenoxy)methyl)-2-(2-(2-fluoropyridin-3-yl)vinyl)oxazole], the negative logarithm of the EC50 (pEC50) in the test on OCI-AML3 cells was 6.00 to 6.30; in the test with MLL-AF9 cells, 6.30 to 7.00.

`C(=C\c1nc(COc2ccc(CCCCn3ccnn3)cc2)co1)/c1ccccn1` [Compound 84, (E)-4-((4-(4-(1H-1,2,3-triazol-1-yl)butyl)phenoxy)methyl)-2-(2-(pyridin-2-yl)vinyl)oxazole]: the negative-log EC50 (pEC50) in the test with OCI-AML3 cells and with MLL-AF9 cells was 5.00 to 6.00 each time.

Take `Fc1cccnc1/C=C/c1nc(COc2ccc(CCCCn3ccnn3)cc2)co1` [Compound 85, (E)-4-((4-(4-(1H-1,2,3-triazol-1-yl)butyl)phenoxy)methyl)-2-(2-(3-fluoropyridin-2-yl)vinyl)oxazole]: the pEC50 with OCI-AML3 cells and with MLL-AF9 cells was 5.00 to 6.00 throughout.

On to `O=C(CCO)NCCCCc1ccc(OCc2coc(/C=C/c3ccc(C(F)(F)F)cc3)n2)cc1` [Compound 86, (E)-3-hydroxy-N-(4-(4-((2-(4-(trifluoromethyl)styryl)oxazol-4-yl)methoxy)phenyl)butyl) propanamide], for which the pEC50 in the test on OCI-AML3 cells was 5.00 to 6.00; in the test with MLL-AF9 cells, 6.30 to 7.00.

`CN(C)C(=O)OCCC(=O)NCCCCc1ccc(OCc2coc(/C=C/c3ccc(C(F)(F)F)cc3)n2)cc1` [Compound 87, (E)-3-oxo-3-((4-(4-((2-(4-(trifluoromethyl)styryl)oxazol-4-yl)methoxy)phenyl)butyl)amino)propyl dimethylcarbamate]: the pEC50 was 6.00 to 6.30 with OCI-AML3 cells and 6.30 to 7.00 with MLL-AF9 cells.

For `Fc1cc(C(F)(F)F)ccc1/C=C/c1nc(COc2ccc(CCCCn3cncn3)cc2)co1` [Compound 88], the results for the negative logarithm of the EC50 (pEC50) in the test on OCI-AML3 cells and with MLL-AF9 cells were 5.00 to 6.00 and 6.00 to 6.30, respectively.

Regarding `FC(F)(F)c1ccc(/C=C/c2nc(COc3ccc(CCCCn4cncn4)cc3)co2)c(Oc2ccc(CCCCn3cncn3)cc2)c1` [Compound 89, (E)-2-(2-(4-(4-(1H-1,2,4-triazol-1-yl)butyl)phenoxy)-4-(trifluoromethyl)styryl)-4-((4-(4-(1H-1,2,4-triazol-1-yl)butyl)phenoxy)methyl)oxazole], the pEC50 in the test with OCI-AML3 cells and in the test on MLL-AF9 cells was 5.00 to 6.00 in each case.

As for `Fc1cc(C(F)(F)F)ccc1/C=C/c1nc(COc2ccc(CCCCn3cnnn3)cc2)co1` [Compound 90, (E)-4-((4-(4-(1H-tetrazol-1-yl)butyl)phenoxy)methyl)-2-(2-fluoro-4-(trifluoromethyl)styryl) oxazole], the pEC50 in the test on OCI-AML3 cells is 5.00 to 6.00; in the test on MLL-AF9 cells, 6.30 to 7.00.

Consider `Fc1cc(C(F)(F)F)ccc1/C=C/c1nc(COc2ccc(CCCCn3cccn3)cc2)co1` [Compound 91, (E)-4-((4-(4-(1H-pyrazol-1-yl)butyl)phenoxy)methyl)-2-(2-fluoro-4-(trifluoromethyl)styryl) oxazole], for which the pEC50 with OCI-AML3 cells is 5.00 to 6.00; with MLL-AF9 cells it was 6.00 to 6.30.

With `Cc1cn(CCCCc2ccc(OCc3coc(/C=C/c4ccc(C(F)(F)F)cc4F)n3)cc2)nn1` [Compound 92, (E)-2-(2-fluoro-4-(trifluoromethyl)styryl)-4-((4-(4-(4-methyl-1H-1,2,3-triazol-1-yl)butyl)phenoxy)methyl) oxazole], the pEC50 was 6.00 to 6.30 with OCI-AML3 cells and 6.30 to 7.00 in the test with MLL-AF9 cells.

With `Cc1ncn(CCCCc2ccc(OCc3coc(/C=C/c4ccc(C(F)(F)F)cc4F)n3)cc2)n1` [Compound 93, (E)-2-(2-fluoro-4-(trifluoromethyl)styryl)-4-((4-(4-(3-methyl-1H-1,2,4-triazol-1-yl)butyl)phenoxy)methyl)oxazole], the pEC50 is 5.00 to 6.00 in the test on OCI-AML3 cells and 6.00 to 6.30 in the test with MLL-AF9 cells.

Take `Cc1nnn(CCCCc2ccc(OCc3coc(/C=C/c4ccc(C(F)(F)F)cc4F)n3)cc2)n1` [Compound 94, (E)-2-(2-fluoro-4-(trifluoromethyl)styryl)-4-((4-(4-(5-methyl-2H-tetrazol-2-yl)butyl)phenoxy)methyl)oxazole]: the pEC50 in the test with OCI-AML3 cells and with MLL-AF9 cells was 5.00 to 6.00 each time.

With `OCCc1cn(CCCCc2ccc(OCc3coc(/C=C/c4ccc(C(F)(F)F)cc4F)n3)cc2)nn1` [Compound 95, (E)-2-(1-(4-(4-((2-(2-fluoro-4-(trifluoromethyl)styryl)oxazol-4-yl)methoxy)phenyl)butyl)-1H-1,2,3-triazol-4-yl)ethanol], the values for the pEC50 in the test with OCI-AML3 cells and in the test on MLL-AF9 cells were 5.00 to 6.00 and 6.30 to 7.00, respectively.

Turning to `COCCNC(=O)OCCc1cn(CCCCc2ccc(OCc3coc(/C=C/c4ccc(C(F)(F)F)cc4F)n3)cc2)nn1` [Compound 96, (E)-2-(1-(4-(4-((2-(2-fluoro-4-(trifluoromethyl)styryl)oxazol-4-yl)methoxy)phenyl)butyl)-1H-1,2,3-triazol-4-yl)ethyl (2-methoxyethyl)carbamate], the values for the pEC50 in the test on OCI-AML3 cells and with MLL-AF9 cells were 6.00 to 6.30 and 6.30 to 7.00, respectively.

For `O=C(NC1CCCC1)OCCc1cn(CCCCc2ccc(OCc3coc(/C=C/c4ccc(C(F)(F)F)cc4F)n3)cc2)nn1` [Compound 97, (E)-2-(1-(4-(4-((2-(2-fluoro-4-(trifluoromethyl)styryl)oxazol-4-yl)methoxy)phenyl)butyl)-1H-1,2,3-triazol-4-yl)ethyl cyclopentylcarbamate], the pEC50 in the test with OCI-AML3 cells and in the test on MLL-AF9 cells was 6.30 to 7.00 each time.

As to `CC(C)NC(=O)OCCc1cn(CCCCc2ccc(OCc3coc(/C=C/c4ccc(C(F)(F)F)cc4F)n3)cc2)nn1` [Compound 98, (E)-2-(1-(4-(4-((2-(2-fluoro-4-(trifluoromethyl)styryl)oxazol-4-yl)methoxy)phenyl)butyl)-1H-1,2,3-triazol-4-yl)ethyl isopropylcarbamate], the pEC50 with OCI-AML3 cells is 6.30 to 7.00; in the test with MLL-AF9 cells it was 7.00 to 7.30.

With `O=[N+]([O-])c1ccc(/C=C/c2nc(COc3ccc(CCCCn4ccnc4)cc3)co2)c(F)c1` [Compound 99, (E)-4-((4-(4-(1H-imidazol-1-yl)butyl)phenoxy)methyl)-2-(2-fluoro-4-nitrostyryl)oxazole], the pEC50 with OCI-AML3 cells and in the test on MLL-AF9 cells was 6.30 to 7.00 each time.

Regarding `Fc1cc(C(F)(F)F)ccc1/C=C/c1nc(COc2ccc(CCCCn3ccnc3)cc2)co1` [Compound 100, (E)-4-((4-(4-(1H-imidazol-1-yl)butyl)phenoxy)methyl)-2-(2-fluoro-4-(trifluoromethyl)styryl)oxazole], the pEC50 in the test on OCI-AML3 cells and with MLL-AF9 cells was 6.00 to 6.30 in each case.

For `O=[N+]([O-])c1ccc(/C=C/c2nc(COc3ccc(CCCCn4ccnn4)cc3)co2)c(Oc2ccc(CCCCn3ccnn3)cc2)c1` [Compound 101, (E)-2-(2-(4-(4-(1H-1,2,3-triazol-1-yl)butyl)phenoxy)-4-nitrostyryl)-4-((4-(4-(1H-1,2,3-triazol-1-yl)butyl)phenoxy)methyl)oxazole], the pEC50 in the test with OCI-AML3 cells and in the test on MLL-AF9 cells was 5.00 to 6.00 throughout.

As to `Fc1cc(C(F)(F)F)ccc1/C=C/c1nc(COc2ccc(CCCCc3cccnc3)cc2)co1` [Compound 102, (E)-2-(2-fluoro-4-(trifluoromethyl)styryl)-4-((4-(4-(pyridin-3-yl)butyl)phenoxy)methyl)oxazole], the negative logarithm of the EC50 (pEC50) with OCI-AML3 cells and with MLL-AF9 cells was 6.30 to 7.00 each time.

For `O=[N+]([O-])c1ccc(/C=C/c2nc(COc3ccc(CCCCc4cccnc4)cc3)co2)c(F)c1` [Compound 103, (E)-2-(2-fluoro-4-nitrostyryl)-4-((4-(4-(pyridin-3-yl)butyl)phenoxy)methyl)oxazole], the negative-log EC50 (pEC50) in the test on OCI-AML3 cells and in the test on MLL-AF9 cells was 6.30 to 7.00 each time.

Regarding `Fc1cc(C(F)(F)F)ccc1/C=C/c1nc(COc2ccc(CCCCc3ccncc3)cc2)co1` [Compound 104, (E)-2-(2-fluoro-4-(trifluoromethyl)styryl)-4-((4-(4-(pyridin-4-yl)butyl)phenoxy)methyl)oxazole], the negative-log EC50 (pEC50) in the test on OCI-AML3 cells and in the test with MLL-AF9 cells was 5.00 to 6.00 in each case.

In the case of `Fc1cc(C(F)(F)F)ccc1/C=C/c1nc(COc2ccc(CCCn3ccnn3)cc2)co1` [Compound 105, (E)-4-((4-(3-(1H-1,2,3-triazol-1-yl)propyl)phenoxy)methyl)-2-(2-fluoro-4-(trifluoromethyl)styryl)oxazole], the pEC50 with OCI-AML3 cells is 6.30 to 7.00; with MLL-AF9 cells it was 6.00 to 6.30.
